Reference: PubChem BioAssay (NCI)
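Step 1: Grow cells in 96-well plates. Step 2: Expose to compound for 48 hours at 5 concentrations. Step 3: Interpolate endpoints linearly; if unreached, use highest concentration. GI50: concentration for 50% inhibition of growth. TGI marks complete inhibition of growth.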

What was measured:
Assay in all cases: NCI anticancer screen, dose series, 48 h
SF-539 CNS = system: SF-539 CNS
A498 renal = system: A498 renal
NCI-H522 lung = system: NCI-H522 lung
SK-MEL-2 melanoma = system: SK-MEL-2 melanoma
UO-31 renal = system: UO-31 renal
SW-620 colon = system: SW-620 colon
UACC-62 melanoma = system: UACC-62 melanoma
BT-549 breast = system: BT-549 breast
ACHN renal = system: ACHN renal
NCI-H226 lung = system: NCI-H226 lung
OVCAR-3 ovarian = system: OVCAR-3 ovarian
OVCAR-5 ovarian = system: OVCAR-5 ovarian
IGROV1 ovarian = system: IGROV1 ovarian
SF-268 CNS = system: SF-268 CNS
HT29 colon = system: HT29 colon
M14 melanoma = system: M14 melanoma
SK-MEL-5 melanoma = system: SK-MEL-5 melanoma
MDA-MB-435 = system: MDA-MB-435
MCF7 breast = system: MCF7 breast
HOP-62 NSCLC = system: HOP-62 NSCLC
MDA-MB-231 breast = system: MDA-MB-231 breast
SNB-75 CNS = system: SNB-75 CNS
PC-3 prostate = system: PC-3 prostate
MALME-3M melanoma = system: MALME-3M melanoma
K-562 leukemia = system: K-562 leukemia
HCC-2998 colon = system: HCC-2998 colon
DU-145 prostate = system: DU-145 prostate
MDA-MB-468 breast = system: MDA-MB-468 breast
UACC-257 melanoma = system: UACC-257 melanoma
KM12 colon = system: KM12 colon
U251 CNS = system: U251 CNS
A549 NSCLC = system: A549 NSCLC
SNB-19 CNS = system: SNB-19 CNS
HL-60(TB) leukemia = system: HL-60(TB) leukemia
HOP-92 NSCLC = system: HOP-92 NSCLC
NCI-H23 lung = system: NCI-H23 lung
LOX IMVI melanoma = system: LOX IMVI melanoma
RPMI-8226 leukemia = system: RPMI-8226 leukemia
COLO 205 colon = system: COLO 205 colon
TK-10 renal = system: TK-10 renal
SK-OV-3 ovarian = system: SK-OV-3 ovarian
CAKI-1 renal = system: CAKI-1 renal
T-47D breast = system: T-47D breast
SK-MEL-28 melanoma = system: SK-MEL-28 melanoma
786-0 renal = system: 786-0 renal
HCT-15 colon = system: HCT-15 colon
OVCAR-4 ovarian = system: OVCAR-4 ovarian

SMILES: CC(=O)Oc1ccccc1C(=O)[Se]CC(=O)Nc1cccc(C(F)(F)F)c1
- GI50 (SF-539 CNS): 1.87 µM
- TGI (SF-539 CNS): 3.34 µM
- GI50 (A498 renal): 1.45 µM
- TGI (A498 renal): 2.95 µM
- GI50 (NCI-H522 lung): 1.83 µM
- TGI (NCI-H522 lung): 3.81 µM
- GI50 (SK-MEL-2 melanoma): 2.84 µM
- TGI (SK-MEL-2 melanoma): 10.9 µM
- GI50 (UO-31 renal): 1.23 µM
- TGI (UO-31 renal): 2.56 µM
- GI50 (SW-620 colon): 1.46 µM
- TGI (SW-620 colon): 3.11 µM
- GI50 (UACC-62 melanoma): 1.38 µM
- TGI (UACC-62 melanoma): 3.07 µM
- GI50 (BT-549 breast): 2.13 µM
- TGI (BT-549 breast): 3.61 µM
- GI50 (ACHN renal): 2.39 µM
- TGI (ACHN renal): 6.36 µM
- GI50 (NCI-H226 lung): 3.11 µM
- TGI (NCI-H226 lung): 5.55 µM
- GI50 (OVCAR-3 ovarian): 1.71 µM
- TGI (OVCAR-3 ovarian): 4.38 µM
- GI50 (OVCAR-5 ovarian): 2.15 µM
- TGI (OVCAR-5 ovarian): 5.12 µM
- GI50 (IGROV1 ovarian): 2.05 µM
- TGI (IGROV1 ovarian): 4 µM
- GI50 (SF-268 CNS): 2.69 µM
- TGI (SF-268 CNS): 5.87 µM
- GI50 (HT29 colon): 1.88 µM
- TGI (HT29 colon): 5.16 µM
- GI50 (M14 melanoma): 1.95 µM
- TGI (M14 melanoma): 3.83 µM
- GI50 (SK-MEL-5 melanoma): 1.29 µM
- TGI (SK-MEL-5 melanoma): 2.69 µM
- GI50 (MDA-MB-435): 3.12 µM
- TGI (MDA-MB-435): 5.41 µM
- GI50 (MCF7 breast): 2.75 µM
- TGI (MCF7 breast): 12.4 µM
- GI50 (HOP-62 NSCLC): 2.91 µM
- TGI (HOP-62 NSCLC): 5.44 µM
- GI50 (MDA-MB-231 breast): 2.31 µM
- TGI (MDA-MB-231 breast): 4.18 µM
- GI50 (SNB-75 CNS): 2.47 µM
- TGI (SNB-75 CNS): 5.94 µM
- GI50 (PC-3 prostate): 5.23 µM
- TGI (PC-3 prostate): 21.9 µM
- GI50 (MALME-3M melanoma): 1.57 µM
- TGI (MALME-3M melanoma): 3.04 µM
- GI50 (K-562 leukemia): 5.59 µM
- TGI (K-562 leukemia): 55.3 µM
- GI50 (HCC-2998 colon): 11.9 µM
- TGI (HCC-2998 colon): 25.7 µM
- GI50 (DU-145 prostate): 2.09 µM
- TGI (DU-145 prostate): 4.61 µM
- GI50 (MDA-MB-468 breast): 1.75 µM
- TGI (MDA-MB-468 breast): 3.35 µM
- GI50 (UACC-257 melanoma): 3.21 µM
- TGI (UACC-257 melanoma): 9.82 µM
- GI50 (KM12 colon): 5.04 µM
- TGI (KM12 colon): 19.5 µM
- GI50 (U251 CNS): 2.12 µM
- TGI (U251 CNS): 5.3 µM
- GI50 (A549 NSCLC): 1.66 µM
- TGI (A549 NSCLC): 3.8 µM
- GI50 (SNB-19 CNS): 1.86 µM
- TGI (SNB-19 CNS): 3.8 µM
- GI50 (HL-60(TB) leukemia): 1.78 µM
- TGI (HL-60(TB) leukemia): 5.27 µM
- GI50 (HOP-92 NSCLC): 0.763 µM
- TGI (HOP-92 NSCLC): 2.15 µM
- GI50 (NCI-H23 lung): 1.5 µM
- TGI (NCI-H23 lung): 3.87 µM
- GI50 (LOX IMVI melanoma): 1.94 µM
- TGI (LOX IMVI melanoma): 3.65 µM
- GI50 (RPMI-8226 leukemia): 5.44 µM
- TGI (RPMI-8226 leukemia): 85 µM
- GI50 (COLO 205 colon): 4.35 µM
- TGI (COLO 205 colon): 17 µM
- GI50 (TK-10 renal): 2.07 µM
- TGI (TK-10 renal): 4.71 µM
- GI50 (SK-OV-3 ovarian): 4.22 µM
- TGI (SK-OV-3 ovarian): 20.3 µM
- GI50 (CAKI-1 renal): 0.198 µM
- TGI (CAKI-1 renal): 0.361 µM
- GI50 (T-47D breast): 7.09 µM
- TGI (T-47D breast): 49.5 µM
- GI50 (SK-MEL-28 melanoma): 2.06 µM
- TGI (SK-MEL-28 melanoma): 4.35 µM
- GI50 (786-0 renal): 2.21 µM
- TGI (786-0 renal): 4.62 µM
- GI50 (HCT-15 colon): 1.42 µM
- TGI (HCT-15 colon): 2.85 µM
- GI50 (OVCAR-4 ovarian): 5.19 µM
- TGI (OVCAR-4 ovarian): 60.9 µM
